Tested on: multiple myeloma
Experiment: Total Therapy 2 (TT2) randomized trial, control arm vs thalidomide arm: survival (Kaplan-Meier, Cox regression)
Assay type: in vivo, patients
Conditions: for Overall Survival HR (95% CI), randomization to thalidomide: all patients with GEP data
Excerpt: To clarify the underlying mechanism, survival was examined in the 351 patients for whom gene expression profiling and cytogenetic data were available. […] Survival in the context of cytogenetic abnormalities involving chromosomal loci (CA1, CA13) was also examined. Statistical methods including Cox regression modeling were employed to define variables independently impacting outcomes.
Of all 668 patients accrued to TT2, the 351 with gene expression profiling data available on CD138-purified plasma cells prior to initiation of therapy are the subjects of this report. […] The sole clinical outcome focus in this example is the overall survival measured from initiation of therapy.
Kaplan-Meier methods were used to generate survival distribution graphs and comparisons were made using the log-rank test. Categorical comparisons were made using the chi-squared test. Running log-rank tests were used to determine optimal cut points for IL6R expression levels. Multivariate analyses applied stepwise selection and Cox proportional hazard regression modeling.
In each of Tables 2-3: HR—Hazard Ratio, 95% Cl-95% Confidence Interval, P-value from Wald Chi-Square Test in Cox Regression NS2-Multivariate results not statistically significant at 0.05 level. All univariate p-values reported regardless of significance. Multivariate model uses stepwise selection with entry level 0.1 and variable remains if meets the 0.05 level. A multivariate p-value greater than 0.05 indicates variable forced into model with significant variables chosen using stepwise selection. Variables considered for the multivariate model were: Cytogenetic abnormalities, CA1, CA13, CA 1+13, Albumin <3.5 g/dL, B2M >5.5 mg/L, Creatinine ≧2 mg/dL, Hb <10 g/dL, LDH ≧190 U/L, GEP high-risk, GEP TP53 deletion, GEP IL6R expression ≧2900, GEP CKS1B Q4, Randomization to thalidomide, IL6R and CA 1+13 (interaction term).

SMILES: O=C1CCC(N2C(=O)c3ccccc3C2=O)C(=O)N1 (stereo not shown) [thalidomide]
- 7-year survival estimate (GEP-defined low-risk myeloma, subset displaying cytogenetic abnormalities, thalidomide arm vs 30% on control arm, p=0.004 (FIG. 1B)): 67%
- outcome vs control arm (all patients with GEP-defined low-risk myeloma, p=0.13): only trending toward better outcomes
- 5-year survival estimate (low-risk patients, CA1/13 subgroup (CA without both CA1 and CA13), addition of thalidomide vs 59% control, p<0.001 (FIG. 1C)): 95%
- survival outcomes on both treatment arms (low-risk patients, subgroups with no cytogenetic abnormalities and with CA1+13 (FIG. 1C)): similar
- Overall Survival HR (95% CI), randomization to thalidomide (multivariate analysis, n/N 168/337, P 0.037): 0.69 (0.49, 0.98)
- OS from Enrollment HR (95% CI), CA with thalidomide randomization (interaction term) (multivariate analysis, patients with GEP-defined low-risk, n/N 33/304, P 0.003): 0.27 (0.11, 0.64)
- OS from Enrollment HR (95% CI), randomization to thalidomide (multivariate analysis, patients with GEP-defined low-risk, n/N 149/304, P 0.766): 1.08 (0.65, 1.79)
- 7-year survival (patients exhibiting cytogenetic abnormalities (CA), randomized to thalidomide in TT2, vs 25% on control arm, p=0.015 (FIG. 1A)): 54%
- Overall Survival HR (95% CI), randomization to thalidomide (univariate analysis, n/N 175/351, P 0.158): 0.78 (0.56, 1.10)
- OS from Enrollment HR (95% CI), randomization to thalidomide (univariate analysis, patients with GEP-defined low-risk, n/N 149/305, P 0.140): 0.74 (0.50, 1.10)

Reference: patent publication US20120269802A1, “Treatment And Prognosis With Thalidomide In Multiple Myeloma Based on Karyotyping And Gene Expression Profiling” (Board Of Trustees Of The University Of Arkansas, priority 2009, published 2012)
